Data taken from patent US8758769B2, “Composition for preventing and treating acetaminophen inducing liver injury comprising the protein extract from Porphyra yezoensis” (Pukyong National University Industry Academic Cooperation …, priority 2006, dated 2014).

How the values were obtained:
[1] = test system: PCNA and caspase-3 in liver cell; assay: Liver cell injury inhibition by seaweed protein: PCNA and caspase-3 expression (western blot); assay type: cell-based; settings: 20 mM AAP with or without seaweed protein
Description: Through the above results, it is confirmed that the cell apoptosis of the liver cell is induced by the increase of the AAP concentration and accordingly, the seaweed protein and AAP are processed together and the liver injury inhibition effect of the seaweed protein by AAP is confirmed.
At first, the degree of the PCNA protein expression capable of securing the recovery of the injured cell is confirmed. For this, a liver tissue is homogenized by lysis buffer (25 mM HEPES, pH 7.5, 5 mM EDTA, 2 mM DTT, 0.1% CHAPS) containing the protease inhibitor and then centrifuged by 14,000×g at 4° C. Thereafter, the protein concentration of the obtained upper layer solution is measured by means of a BCA protein assay kit. A loading process is performed by 50[…] per each lane, an electrophoresis process is performed by SDS-PAGE, and thereafter it is moved toward the PVDF membrane (Millipore, USA). At this time, the rainbow molecular marker (amersham) is used as the standard molecular weight. In the separated protein, the expressin of the caspase-3 protein is confirmed by means of Super Signal West Pico Chemiluminescent Substrate (pierce biotechnology incorporation, USA). […]

[2] = test system: GSH (Glutathione) in the liver tissue; assay: Glutathione content in the liver tissue; assay type: in vivo, rat; settings: rats, AAP 700 mg/kg; compared with the control group of 100%
Description: Accordingly, the GSH activity in the liver tissue is measured. For this, the liver tissue is homogenized by 5% of sulfosalicylic acid, then frozen by the liquid nitrogen and thereafter a thaw process is executed repeatedly by twice in a cistern of 37° C. Thereafter, the defrosted liver tissue is left for 5 minutes At 4° C. and centrifuged at 4° C., 1,000×g, for 10 minutes, so that the upper solution is obtained. The upper solution and the standard solution within the GSH assay kit are divided into a 96-well plate, respectively, thereafter a working mixture is added to the 96-well plate, and a reaction is progressed at the room temperature for 5 minutes. After 5 minutes, NADPH is inserted into the above plate and mixed through a pipet and then the absorbance is measured by the interval of 5 minutes at 412 nm.

[3] = test system: caspase-3; assay: Caspase-3 activity in the liver tissue (DEVD-pNA substrate); assay type: in vivo, rat; settings: rats, AAP 700 mg/kg; control group 100%
Description: Accordingly, to confirm the cell apoptosis when generating the liver injury by AAP, the activity of the caspase-3 is measured. For this, the liver tissue is homogenized by the lysis buffer (25 mM HEPES, pH 7.5, 5 mM EDTA, 2 mM DTT, 0.1% CHAPS) containing the protease inhibitor and centrifuged by 14,000×g at 4° C. The protein concentration of the obtained upper solution is measured by a BCA protein assay kit. Thereafter, 80[…] of protein is inserted into the 96-well, then the DEVD-pNA substrate is inserted, thereafter, a reaction is progressed for 4 hours at 37° C. The absorbance is measured at 405 nm.

[4] = test system: HepG2 liver cell; assay: Proliferation of HepG2 liver cell by AAP treatment (MTS/MTT); assay type: cell-based; settings: AAP in serum free medium, 24 hours and 48 hours, FIG. 7
Description: The used HepG2 liver cell is distributed by ATCC (American Type Culture Center).
Antibiotics (penicillin/streptomycin) of 100 units/ml is added to an MEM medium and then filtrated by a filter of 0.22[…]. Before the culture, FBS (Fetal bovine serum) is added, thereby obtaining the final concentration of 10%. The cell is cultured in a 5% CO2 incubator at 37° C. During the culture of the cell, the medium is replaced by twice a week and when the medium is a confluent state, the medium is washed by PBS (Phosphate Buffered Saline). Thereafter, the attached cells are separated by 0.05% of trypsin solution and centrifuged, then each cell is mixed, dispersed properly by using a pipet and divided identically.
To examine the cell proliferation and the toxicity, the HepG2 liver cell is controlled by concentration of 5×10^4 cells/ml, and divided into 96-well microplates (palcon, USA) by 100[…] per a well and cultured. After 24 hours, a medium is replaced with a serum free medium and then cultured again for 24 hours. A protein sample is dissolved into the serum free medium, then diluted until 0.01% concentration. The dilution solution by each concentration is added to each cell line and cultured for 24 hours at the 5% CO2 incubator at 37° C. […] Thereafter, the absorbance at 490 nm is measured by using an automatic ELIZA reader and the cell survival ratio is calculated by a calculation formula 1. […]

SMILES: CC(=O)Nc1ccc(O)cc1 [AAP, Acetaminophen]
- Cleaved caspase-3 with activation (FIG. 9) [1]: the activated and cleaved caspase-3 is increased
- GSH content in the liver tissue [2]: 85.39±4.81%
- Activity of caspase-3 in the liver tissue [3]: 143.38±10.25%
- Proliferation of the HepG2 liver cell [4]: inhibited according to increase of the AAP concentration and the culture time
